This is an account of results in patent US20190328819A1 (priority 2016, published 2019).

Each structure is given as a SMILES string. Where “and” joins values, the source holds several entries; their conditions need not be identical. Equal values may be shown once.

In series [1] the test system is human dermal fibroblasts. Nature of the series: Exposure to Cd(II), fibroblast survival. The class given is cell-based.
Series [2] concerns human dermal fibroblasts. Nature of the series: Exposure to As(III) (sodium arsenite), fibroblast survival. The class given is cell-based. As to conditions: 9 mM sodium arsenite, 24 hours, no EDA. The protocol: Deschampsia antarctica extract (EDA): In experiments with fibroblasts, lyophilized EDA batch 051214 was used. The product was dissolved in a complete DMEM medium at a concentration of 5 mg/ml, stirred in a magnetic stirrer for 30 minutes and filtered through a 0.2 μm sterile cellulose acetate filter (Minisart, Sartorius).
As(III): sodium arsenite (NaAsO2) at a final concentration of 9 mM was dissolved in phenol red-free DMEM medium and filtered through a 0.2 μm sterile cellulose acetate filter (Minisart, Sartorius).
The cells used were human dermal fibroblasts isolated from the outer area of the retroauricular flap obtained from different healthy voluntary donors and preserved in liquid N2. The experiments used cells grown in culture flasks containing DMEM supplemented with 2 mM glutamine, […], 10% fetal bovine serum, in a Heraeus oven with an atmosphere of 7% CO2 and 93% humidified air at 37° C., until reaching about 90% of confluence, after which a new pass was performed by means of trypsinization. […]
The plates were washed twice with Hank's. […] It was carefully stirred in a plate stirrer and the absorbance at 550 nm was read in a BMG Fluostar Optima spectrophotometer.

In the series with human dermal fibroblasts [1] (3 μM Cd, 24 hours, no EDA), `[Cl][Cd][Cl]` [Cd, cadmium chloride] had a Survival % of 54.9% and a Survival x of 0.188 u abs. In addition, in the series on human dermal fibroblasts [1] (Cd(II) at 3 μM (FIG. 7)), the mortality entry is “about 50%”.
With `O=[As]O` [sodium arsenite], in the series on human dermal fibroblasts [2], the “Survival % (vs CC)” value was 42.0% and 54.6% and 46.4%; the Survival x is 0.209 u abs and 0.206 u abs and 0.334 u abs.
